The text below walks through data of patent publication US9359378B2, “Substituted oxazolo[3,4-a]pyrazines as pharmaceutcals” (BIOLAB SANUS FARMACÊUTICA LTDA., priority 2014, dated 2016).

Holding throughout (format): biochemical
For one experiment, the target named is T1, PDE3A (Homo sapiens, UniProt Q14432).
T1 construct: host or cells: Sf9
The experiment can be described thus: PDE3A enzyme inhibition (HTRF, cAMP substrate). The note with it: human recombinant enzyme (Sf9); FIGS. 14 and 15; test concentration not given. From the text:
(§1) The effects of the BL-230 and BL-236 compounds on the activity of the human enzymes PDE2A1, PDE3A, PDE4A1A, PDE4B1, PDE7A, PDE8A1, and PDE10A2 and PDE11A4 were quantified by measuring the production of adenosine 5′-monophosphate (5′AMP) from cyclic adenosine monophosphate (cAMP), with human recombinant enzyme expressed in Sf9 cells and the detection method was by using HTRF®.
(§2) The test compound, the reference compound or water (control) were mixed with the enzyme (the enzymes and their amounts used are described in Table 1) in a buffer containing 44.4 mM Tris-HCl, 5.28 mM MgCl2, 2.64 mM DTT and 0.044% Tween® 20 (pH 7.8). Then, the reaction was initiated by the addition of 40 nM of cAMP substrate and the mixture was incubated for 30 minutes at room temperature. For basal control measurements, the enzyme was omitted from the reaction mixture. The fluorescence acceptor (Dye2 labeled cAMP) and fluorescence donor (anti-cAMP antibody labeled with europium cryptate) were added in the presence of 1 mM IBMX. After 60 minutes, the fluorescence corresponding to the amount of transfer residual cAMP was measured at λex=337 nm, λem=620 nm and λem=665 nm using a microplate reader (RubyStar, BMG). The enzyme activity was determined by the signal division measured at 665 nm, by the measured signal at 620 nm (right). The results were expressed as a inhibition percentage of the control enzyme activity. […]
(In general: Time-resolved FRET reads energy transfer from a long-lived donor to a nearby acceptor.)

The target of the next experiment is T2, PDE4D2 (Homo sapiens, UniProt Q08499).
T2 construct: host or cells: Sf9
T2 sequence (Q08499 303-809 limits assumed): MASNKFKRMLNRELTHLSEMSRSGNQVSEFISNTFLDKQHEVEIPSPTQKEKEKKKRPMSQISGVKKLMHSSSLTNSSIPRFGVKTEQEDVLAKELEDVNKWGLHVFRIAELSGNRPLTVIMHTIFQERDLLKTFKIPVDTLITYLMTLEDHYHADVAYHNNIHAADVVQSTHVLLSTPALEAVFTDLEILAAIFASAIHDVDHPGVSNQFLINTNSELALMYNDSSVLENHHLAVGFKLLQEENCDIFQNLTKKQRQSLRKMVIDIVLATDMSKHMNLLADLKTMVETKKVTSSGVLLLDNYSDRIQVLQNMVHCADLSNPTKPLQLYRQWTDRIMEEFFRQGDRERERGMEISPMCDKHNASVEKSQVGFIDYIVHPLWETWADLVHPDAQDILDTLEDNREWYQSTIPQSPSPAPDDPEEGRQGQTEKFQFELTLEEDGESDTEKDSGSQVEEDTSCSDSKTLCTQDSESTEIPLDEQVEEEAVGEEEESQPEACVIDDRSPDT
Put plainly: PDE4D2 enzyme inhibition (HTRF, cAMP substrate). The note with it: human recombinant enzyme (Sf9); FIGS. 14 and 15; test concentration not given. The procedure: The effects of the BL-230 and BL-236 compounds on the activity of the human PDE4D2 enzyme were quantified by measuring the production from 5′ AMP cAMP using a human recombinant enzyme expressed in Sf9 cells and the method of detection used was the HTRF®.
The test compound, the reference compound or the water (control) were mixed with 0.75 U of PDE4D2 in a saline buffer solution balanced with Hanks (HBSS) (Invitrogen) supplemented, and 1.5 mM MgCl2, 0.1% bovine serum albumin (BSA). Then, the reaction was initiated by addition of 40 nM of cAMP substrate and the mixture is incubated for 15 minutes at 37° C. For basal control measurements, the enzyme was omitted from the reaction mixture. The fluorescence acceptor (Dye2 labeled cAMP) and fluorescence donor (anti-cAMP antibody labeled with europium cryptate) are added in the presence of 1 mM IBMX. After 60 minutes at room temperature, the fluorescence corresponding to the amount of transfer residual cAMP was measured at λex=337 nm, λem=620 nm and λem=665 nm using a microplate reader (Envision, Perkin Elmer). The enzyme activity was determined by the signal division measured at 665 nm, by the measured signal at 620 nm (ratio). The results were expressed as an inhibition percentage of the control enzyme activity. […]

For the next experiment, the target named is T3, PDE10A2 (Homo sapiens, UniProt Q9Y233).
T3 construct: host or cells: Sf9
T3 sequence (Q9Y233 267-1055): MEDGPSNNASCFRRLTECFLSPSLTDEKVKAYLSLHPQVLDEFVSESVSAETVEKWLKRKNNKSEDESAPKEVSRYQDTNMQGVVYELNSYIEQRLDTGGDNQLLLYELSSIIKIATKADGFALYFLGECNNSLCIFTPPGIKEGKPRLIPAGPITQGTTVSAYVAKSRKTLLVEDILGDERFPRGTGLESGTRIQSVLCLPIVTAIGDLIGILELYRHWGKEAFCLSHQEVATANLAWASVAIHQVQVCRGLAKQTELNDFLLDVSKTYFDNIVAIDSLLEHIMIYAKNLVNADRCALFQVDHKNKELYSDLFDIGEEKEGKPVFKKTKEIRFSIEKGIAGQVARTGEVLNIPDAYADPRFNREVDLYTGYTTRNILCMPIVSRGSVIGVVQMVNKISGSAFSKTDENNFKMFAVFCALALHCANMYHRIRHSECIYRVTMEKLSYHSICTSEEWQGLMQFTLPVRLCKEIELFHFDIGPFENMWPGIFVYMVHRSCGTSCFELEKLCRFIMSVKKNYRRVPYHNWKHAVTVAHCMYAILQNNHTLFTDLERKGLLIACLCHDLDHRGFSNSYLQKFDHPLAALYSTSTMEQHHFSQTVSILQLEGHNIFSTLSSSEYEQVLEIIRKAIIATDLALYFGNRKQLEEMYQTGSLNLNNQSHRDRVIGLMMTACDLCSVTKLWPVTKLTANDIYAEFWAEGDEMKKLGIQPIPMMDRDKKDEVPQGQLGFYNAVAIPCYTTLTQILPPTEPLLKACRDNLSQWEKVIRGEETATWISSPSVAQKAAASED
Put plainly: PDE10A2 enzyme inhibition (HTRF, cAMP substrate). The note with it: human recombinant enzyme (Sf9); FIG. 14; test concentration not given.
Text: as §1, §2

T1 sequence (Q14432 whole entry): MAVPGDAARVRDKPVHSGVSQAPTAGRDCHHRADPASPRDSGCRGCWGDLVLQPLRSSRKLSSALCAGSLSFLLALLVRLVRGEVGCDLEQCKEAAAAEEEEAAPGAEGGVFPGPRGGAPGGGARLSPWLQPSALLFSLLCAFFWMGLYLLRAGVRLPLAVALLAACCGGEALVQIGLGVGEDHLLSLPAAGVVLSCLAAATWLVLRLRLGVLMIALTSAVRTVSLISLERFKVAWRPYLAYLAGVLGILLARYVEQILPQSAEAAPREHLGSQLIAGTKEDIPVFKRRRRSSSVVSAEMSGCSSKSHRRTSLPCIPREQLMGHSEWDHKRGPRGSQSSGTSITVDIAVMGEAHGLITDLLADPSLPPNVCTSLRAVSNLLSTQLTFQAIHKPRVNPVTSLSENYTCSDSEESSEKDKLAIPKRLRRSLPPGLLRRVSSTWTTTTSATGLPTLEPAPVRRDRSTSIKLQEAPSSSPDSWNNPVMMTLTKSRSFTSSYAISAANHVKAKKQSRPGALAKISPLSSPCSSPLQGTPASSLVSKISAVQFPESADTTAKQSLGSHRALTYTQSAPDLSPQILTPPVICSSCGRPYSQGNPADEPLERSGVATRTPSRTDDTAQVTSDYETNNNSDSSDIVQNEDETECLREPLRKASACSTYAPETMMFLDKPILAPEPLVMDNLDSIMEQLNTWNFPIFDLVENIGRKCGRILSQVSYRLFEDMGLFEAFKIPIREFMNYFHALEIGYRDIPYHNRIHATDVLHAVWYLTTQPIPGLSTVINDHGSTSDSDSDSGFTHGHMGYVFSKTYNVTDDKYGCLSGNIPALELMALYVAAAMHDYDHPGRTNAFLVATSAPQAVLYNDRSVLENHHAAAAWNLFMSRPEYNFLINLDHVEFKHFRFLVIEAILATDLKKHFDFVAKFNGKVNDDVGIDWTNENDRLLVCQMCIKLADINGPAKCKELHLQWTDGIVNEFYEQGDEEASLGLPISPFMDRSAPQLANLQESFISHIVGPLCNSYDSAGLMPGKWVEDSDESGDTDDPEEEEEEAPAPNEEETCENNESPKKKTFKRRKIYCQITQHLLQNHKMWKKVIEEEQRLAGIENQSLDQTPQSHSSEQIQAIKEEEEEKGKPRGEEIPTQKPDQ

Turning to `C[C@@H](CO)N1CC(=O)N2C(=C(c3c[nH]c4ccccc34)OC2c2ccc3c(c2)OCO3)C1=O` (stereo partly drawn) [BL-236, 3-(benzo[d][1,3]dioxol-5yl)-7-((S)1-hydroxypropan-2yl)-1-(1H-indol-3-yl)-6,7-dihydro-3H-oxazolo[3,4-a]pyrazine-5,8-dione], the “inhibition of PDE3A enzyme activity” value at PDE3A is given as “did not inhibit”. Besides, the “inhibition of PDE4D2 enzyme activity” value at PDE4D2 is “no inhibitory effect”.

With `O=C1C2=C(c3c[nH]c4ccccc34)OC(c3ccc4c(c3)OCO4)N2C(=O)CN1CCO` (centres unmarked) [BL-230, 3-(benzo[d][1,3]dioxol-5yl)-7-(2-hydroxyethyl)-1-(1H-indol-3-yl)-6,7-dihydro-3H-oxazolo[3,4-a]pyrazine-5,8-dione], the “inhibition of PDE3A enzyme activity” value on PDE3A was “did not inhibit”. The “inhibition of PDE4D2 enzyme activity” value on PDE4D2 is 55%. In addition, the “inhibition of PDE10A2 enzyme activity” value on PDE10A2 came out at 35%.
